Our source for the IC50 values is ChEMBL document CHEMBL5226287, “Small organic molecules targeting the energy metabolism of Mycobacterium tuberculosis” (Eur J Med Chem, 2021).

Assay [1] in a line: Inhibition of Mycobacterium smegmatis cytochrome bd oxidase with ATP overexpression inverted membrane vesicles. It is filed as cell membranes, Mycobacterium tuberculosis, Membrane vesicle.
Assay [2] is described as follows: Inhibition of Mycobacterium smegmatis cytochrome bd oxidase with ATP synthase overexpression inverted membrane vesicles. Type of assay: cell membranes, Mycobacterium tuberculosis, Membrane vesicle.
Assay [3] is described as follows: Inhibition of Mycobacterium bovis BCG cytochrome bd oxidase with ATP synthase overexpression inverted membrane vesicles. It is filed as cell membranes, Mycobacterium tuberculosis variant bovis, Membrane vesicle.

Starred links: 1 amine or outer side, 2 acyl side, 3 side chain; linkers in the order of their positions; H or OH if unused. Non-standard residues stand in square brackets, D forms with d. Residues, ends and D or L forms follow the SMILES beside them. ξ: configuration not given here. *: point of attachment. X1 = CCC(=O)C[C@@H](O)C[C@@H](C)C[C@H](N[*:1])C(=O)[*:2]; Alaψ(CH2NMeCH2CH2OH) = C[C@@H](CN(C)CCO)N*; Decanoyl(2R-Me) = CCCCCCCC[C@@H](C)C(=O)*; Ile(3ξ) = CCC(C)[C@H](N)C(=O)O; ξβ3hP = O=C(O)CC1CCCN1; Aib = CC(C)(N)C(=O)O

Take `O=C(CNC1CCCC1)N(c1ccccc1)c1ccccc1`: in assay [1], 14 µM corresponded to half-maximal inhibition (IC50).
Consider `CCCCCCCC[C@@H](C)C(=O)N1CCCC1CC(=O)N[C@@H](C[C@H](C)C[C@H](O)CC(=O)CC)C(=O)NC(C)(C)C(=O)NC(C)(C)C(=O)N[C@H](C(=O)N[C@H](C(=O)NC(C)(C)C(=O)NC(C)(C)C(=O)N[C@@H](C)CN(C)CCO)C(C)C)C(C)CC` (stereo partly drawn) ({Decanoyl(2R-Me)}-[ξβ3hP][X1][Aib][Aib][Ile(3ξ)]V[Aib][Aib]-{Alaψ(CH2NMeCH2CH2OH)}), for which the results for the concentration for half-maximal inhibition (IC50) in assay [2] and in assay [3] were 0.5 µM and 5.2 µM, respectively.
Turning to `O=C(CNC1CCCCC1)N(c1ccccc1)c1ccccc1`, in assay [1], the IC50 stood at 10.4 µM.
